Reference: patent US9249114B2, “Thiazole derivatives” (Merck Patent GmbH, priority 2011, dated 2016)

Key:
[1] = target: TANK binding kinase (TBK1) (Homo sapiens (Human), UniProt Q9UHD2); assay: TBK1 enzyme assay (384-well Flashplate kinase assay); assay type: biochemical; details: 10 μM ATP, 120 Min at 30° C.
Method: Test for the Inhibition of TBK1
The kinase assay is performed as 384-well Flashplate assay (for e.g. Topcount measurement. 0.6 nM TANK binding kinase (TBK1), 800 nM biotinylated MELK-derived peptide (Biotin-Ah-Ah-[…]) SEQ ID NO: 2 and 10 μM ATP (spiked with 0.25 μCi ^33P-ATP/well) are incubated in a total volume of 50 μl (10 mM MOPS, 10 mM Mg-acetat, 0.1 mM EGTA, 1 mM DTT, 0.02% Brij35, 0.1% BSA, pH 7.5) with or without test compound for 120 Min at 30° C. The reaction is stopped with 25 μl 200 mM EDTA. After 30 Min at room temperature the liquid is removed and each well washed thrice with 100 μl 0.9% sodium chloride solution. Nonspecific reaction is determined in presence of 100 nM Staurosporine. Radioactivity is measured in a Topcount (PerkinElmer). Results (e.g. IC50-values) are calculated with program tools provided by the IT-department (e.g. AssayExplorer, Symyx).

IKKε = IKKε (Homo sapiens (Human), UniProt Q14164); assay: IKKε kinase assay (384-well Flashplate); assay type: biochemical; details: 10 μM ATP, 2 hours at 30° C.; read-out: IKKε enzyme assay IC50
Method: Test for the Inhibition of IKKε
IKKε—Kinase Assay (IKKepsilon)
The kinase assay is performed either as 384-well Flashplate assay (for e.g. Topcount measurement). […] The reaction is stopped with 25 μl 200 mM EDTA. After 30 Min at room temperature the liquid is removed and each well washed thrice with 100 μl 0.9% sodium chloride solution. […] Radioactivity is measured with Topcount (PerkinElmer). Results (e.g. IC50-values) are calculated with program tools provided by the IT-department (e.g. AssayExplorer, Symyx).

Chain of IKKε (Q14164 whole entry): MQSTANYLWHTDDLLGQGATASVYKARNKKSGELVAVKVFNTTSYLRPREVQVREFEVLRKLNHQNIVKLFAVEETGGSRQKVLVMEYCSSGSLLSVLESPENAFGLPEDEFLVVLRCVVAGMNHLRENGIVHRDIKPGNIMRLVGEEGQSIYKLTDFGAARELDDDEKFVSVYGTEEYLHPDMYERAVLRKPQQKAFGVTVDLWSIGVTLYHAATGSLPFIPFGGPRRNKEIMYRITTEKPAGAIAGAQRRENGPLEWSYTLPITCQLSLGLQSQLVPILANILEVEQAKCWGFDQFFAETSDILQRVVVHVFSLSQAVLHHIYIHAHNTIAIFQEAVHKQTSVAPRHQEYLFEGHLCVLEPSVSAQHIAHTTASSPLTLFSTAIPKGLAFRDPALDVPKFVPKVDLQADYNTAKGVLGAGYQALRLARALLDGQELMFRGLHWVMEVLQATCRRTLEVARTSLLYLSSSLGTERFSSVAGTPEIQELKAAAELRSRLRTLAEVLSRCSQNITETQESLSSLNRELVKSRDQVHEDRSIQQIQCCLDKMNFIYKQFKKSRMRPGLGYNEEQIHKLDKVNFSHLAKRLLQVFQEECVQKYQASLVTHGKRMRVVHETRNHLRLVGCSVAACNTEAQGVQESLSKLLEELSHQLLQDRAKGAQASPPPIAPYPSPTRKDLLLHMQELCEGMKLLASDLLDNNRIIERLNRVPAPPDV
Chain of TANK binding kinase (TBK1) (Q9UHD2 whole entry): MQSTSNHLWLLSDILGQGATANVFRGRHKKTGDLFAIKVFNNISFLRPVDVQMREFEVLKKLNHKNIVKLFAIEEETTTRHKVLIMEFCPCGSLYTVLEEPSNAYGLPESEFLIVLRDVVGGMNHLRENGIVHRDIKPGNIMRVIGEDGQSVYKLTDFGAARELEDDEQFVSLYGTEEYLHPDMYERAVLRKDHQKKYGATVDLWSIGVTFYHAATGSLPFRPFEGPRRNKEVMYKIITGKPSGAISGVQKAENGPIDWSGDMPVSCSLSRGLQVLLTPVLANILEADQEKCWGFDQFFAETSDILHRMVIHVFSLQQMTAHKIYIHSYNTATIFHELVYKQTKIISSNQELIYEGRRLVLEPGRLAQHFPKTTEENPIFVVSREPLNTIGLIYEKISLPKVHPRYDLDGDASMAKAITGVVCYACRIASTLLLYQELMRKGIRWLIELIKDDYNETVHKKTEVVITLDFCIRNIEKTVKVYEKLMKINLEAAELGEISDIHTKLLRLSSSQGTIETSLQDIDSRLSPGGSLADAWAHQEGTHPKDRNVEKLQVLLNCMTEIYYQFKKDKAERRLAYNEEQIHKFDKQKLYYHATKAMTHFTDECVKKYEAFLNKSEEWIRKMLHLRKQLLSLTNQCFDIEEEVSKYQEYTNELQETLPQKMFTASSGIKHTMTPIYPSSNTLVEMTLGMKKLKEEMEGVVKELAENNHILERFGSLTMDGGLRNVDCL

Row | SMILES | IC50 [1] | IC50 (IKKε)
1 | CC(=O)N1CCC(Cc2ccc(C(=O)Nc3sc(-c4ccncc4)nc3C(N)=O)cc2)CC1 [Compound A30, 5-[4-(1-acetyl-piperidin-4-ylmethyl)-benzoylamino]-2-pyridin-4-yl-thiazole-4-carboxylic acid amide] | 200 nM | –
2 | NC(=O)c1nc(-c2ccncc2)sc1NC(=O)c1ccc(CC2CCNCC2)cc1 [Compound A29, 5-(4-piperidin-4-ylmethyl-benzoylamino)-2-pyridin-4-yl-thiazole-4-carboxylic acid amide] | 190 nM | –
3 | NC(=O)c1nc(-c2ccncc2)sc1NC(=O)c1ccc(CCCCCC(=O)O)cc1 [Compound A28, 6-[4-(4-carbamoyl-2-pyridin-4-yl-thiazol-5-ylcarbamoyl)-phenyl]-hexanoic acid] | 160 nM | –
4 | NC(=O)c1nc(-c2ccncc2)sc1NC(=O)c1ccoc1 [Compound A64, 5-(3-furoylamino)-2-pyridin-4-yl-1,3-thiazole-4-carboxamide] | 4600 nM | –
5 | CN1CCN(Cc2ccc(Nc3sc(-c4ccncc4)nc3C(N)=O)cc2)CC1 [Compound A14, 5-[4-(4-methyl-piperazin-1-ylmethyl)-phenylamino]-2-pyridin-4-yl-thiazole-4-carboxylic acid amide] | 1700 nM | 420 nM
6 | CN(C)c1ccc(C(=O)Nc2sc(-c3ccncc3)nc2C(N)=O)cc1 [Compound A57, 5-{[4-(dimethylamino)benzoyl]amino}-2-pyridin-4-yl-1,3-thiazole-4-carboxamide] | 1800 nM | 1600 nM
7 | NC(=O)c1nc(-c2ccncc2)sc1NC(=O)c1ccccc1 [Compound A56, 5-benzoylamino-2-pyridin-4-yl-thiazole-4-carboxylic acid amide] | 3600 nM | –
8 | CC(C)(C)OC(=O)N1CCN(c2ccc(C(=O)Nc3sc(-c4ccncc4)nc3C(N)=O)cn2)CC1 [Compound A39, 4-[5-(4-Carbamoyl-2-pyridin-4-yl-thiazol-5-ylcarbamoyl)-pyridin-2-yl]-piperazine-1-carboxylic acid tert-butyl ester] | 1200 nM | –
9 | CN1CCC(Cc2ccc(C(=O)Nc3sc(-c4ccncc4)nc3C(N)=O)cc2)CC1 [Compound A26, 5-[4-(1-methyl-piperidin-4-ylmethyl)-benzoylamino]-2-pyridin-4-yl-thiazole-4-carboxylic acid amide] | 100 nM | 31 nM
10 | NC(=O)c1nc(-c2ccncc2)sc1NC(=O)c1cnn(CC2CCNCC2)c1 [Compound A44, 5-[(1-piperidin-4-ylmethyl-1H-pyrazole-4-carbonyl)-amino]-2-pyridin-4-yl-thiazole-4-carboxylic acid amide] | 7900 nM | –
11 | CN(C)Cc1ccc(C(=O)Nc2sc(-c3ccncc3)nc2C(N)=O)cc1 [Compound A40, 5-(4-dimethylaminomethyl-benzoylamino)-2-pyridin-4-yl-thiazole-4-carboxylic acid amide] | 1250 nM | 280 nM
12 | CN1CCN(Cc2ccc(C(=O)Nc3sc(-c4ccnc(C(F)(F)F)c4)nc3C(N)=O)cc2)CC1 [Compound A8, 5-[4-(4-methyl-piperazin-1-ylmethyl)-benzoylamino]-2-(2-trifluoromethyl-pyridin-4-yl)-thiazole-4-carboxylic acid amide] | 6300 nM | 2100 nM
13 | CN(C)C(=O)CCCCCc1ccc(C(=O)Nc2sc(-c3ccncc3)nc2C(N)=O)cc1 [Compound A35, 5-[4-(5-dimethylcarbamoyl-pentyl)-benzoylamino]-2-pyridin-4-yl-thiazole-4-carboxylic acid amide] | 580 nM | –
14 | NC(=O)c1nc(-c2ccncc2)sc1NC(=O)c1ccc(CN2CCCC2)cc1 [Compound A38, 2-pyridin-4-yl-5-(4-pyrrolidin-1-ylmethyl-benzoylamino)-thiazole-4-carboxylic acid amide] | 1160 nM | –
15 | CN(C)C(=O)CCCCc1ccc(C(=O)Nc2sc(-c3ccncc3)nc2C(N)=O)cc1 [Compound A25, 5-[4-(4-dimethylcarbamoyl-butyl)-benzoylamino]-2-pyridin-4-yl-thiazole-4-carboxylic acid amide] | 99 nM | –
16 | CNC(=O)CCCCc1ccc(C(=O)Nc2sc(-c3ccncc3)nc2C(N)=O)cc1 [Compound A32, 5-[4-(4-methylcarbamoyl-butyl)-benzoylamino]-2-pyridin-4-yl-thiazole-4-carboxylic acid amide] | 240 nM | –
17 | NC(=O)c1nc(-c2ccncc2)sc1NC(=O)c1cccs1 [Compound A62, 2-pyridin-4-yl-5-[(2-thienylcarbonyl)amino]-1,3-thiazole-4-carboxamide] | 2000 nM | –
18 | COCCNCc1ccc(C(=O)Nc2sc(-c3ccncc3)nc2C(N)=O)cc1 [Compound A33, 5-{4-[(2-methoxy-ethylamino)-methyl]-benzoylamino}-2-pyridin-4-yl-thiazole-4-carboxylic acid amide] | 260 nM | –
19 | NC(=O)c1nc(-c2ccncc2)sc1NC(=O)c1ccc(CC2CCN(C(N)=O)CC2)cc1 [Compound A23, 4-[4-(4-carbamoyl-2-pyridin-4-yl-thiazol-5-ylcarbamoyl)-benzyl]-piperidine-1-carboxylic acid amide] | 94 nM | –
20 | CN1CCN(C(=O)c2ccc(C(=O)Nc3sc(-c4ccncc4)nc3C(N)=O)cc2)CC1 [Compound A34, 5-[4-(4-methyl-piperazine-1-carbonyl)-benzoylamino]-2-pyridin-4-yl-thiazole-4-carboxylic acid amide] | 310 nM | –
21 | CN(C)CCNCc1ccc(C(=O)Nc2sc(-c3ccncc3)nc2C(N)=O)cc1 [Compound A31, 5-{4-[(2-dimethylamino-ethylamino)-methyl]-benzoylamino}-2-pyridin-4-yl-thiazole-4-carboxylic acid amide] | 210 nM | –
22 | CN1CCN(Cc2ccc(C(=O)Nc3sc(-c4ccncc4)nc3C#N)cc2)CC1 [Compound A45, N-(4-cyano-2-pyridin-4-yl-thiazol-5-yl)-4-(4-methyl-piperazin-1-ylmethyl)-benzamide] | 8200 nM | –
23 | CN1CCN(Cc2ccc(C(=O)Nc3sc(-c4ccncc4)nc3C(N)=O)cc2)CC1 [Compound A4, 5-[4-(4-methyl-piperazin-1-ylmethyl)-benzoylamino]-2-pyridin-4-yl-thiazole-4-carboxylic acid amide] | 300 nM | –
24 | COc1ccc(C(=O)Nc2sc(-c3ccncc3)nc2C(N)=O)cc1OC [Compound A41, 5-(3,4-dimethoxy-benzoylamino)-2-pyridin-4-yl-thiazole-4-carboxylic acid amide] | 1500 nM | –
25 | CN1CCN(Cc2ccc(C(=O)Nc3sc(-c4ccnc(Cl)c4)nc3C(N)=O)cc2)CC1 [Compound A5, 2-(2-chloro-pyridin-4-yl)-5-[4-(4-methyl-piperazin-1-ylmethyl)-benzoylamino]-thiazole-4-carboxylic acid amide] | 1400 nM | –
26 | Cc1cc(-c2nc(C(N)=O)c(NC(=O)c3ccc(CN4CCN(C)CC4)cc3)s2)cc(C)n1 [Compound A16, 2-(2,6-dimethyl-pyridin-4-yl)-5-[4-(4-methyl-piperazin-1-ylmethyl)-benzoylamino]-thiazole-4-carboxylic acid amide] | – | 3800 nM
27 | NC(=O)c1nc(-c2ccncc2)sc1NC(=O)c1ccc(CN2CCOCC2)cc1 [Compound A36, 5-(4-morpholin-4-ylmethyl-benzoylamino)-2-pyridin-4-yl-thiazole-4-carboxylic acid amide] | 645 nM | –
